Source: PubChem BioAssay (NCI)
“And” between values parts separate entries of the source, which are not always exact repeats. Equal values may be shown once.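 1) Cells in 96-well plates. 2) Compound, 48 h, 5 concentrations. 3) Linear interpolation between surrounding doses. 4) Unreached endpoint = highest concentration. The concentration for 50% growth inhibition is given as GI50. TGI: total growth inhibition.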

Experiments:
Assay in all cases: inhibition of tumour cell growth, NCI panel, 48 h
SK-MEL-28 melanoma = system: SK-MEL-28 melanoma
NCI-H23 lung = system: NCI-H23 lung
SW-620 colon = system: SW-620 colon
MDA-MB-435 = system: MDA-MB-435
UO-31 renal = system: UO-31 renal
HCT-116 colon = system: HCT-116 colon
CCRF-CEM leukemia = system: CCRF-CEM leukemia
SK-OV-3 ovarian = system: SK-OV-3 ovarian
NCI-H522 lung = system: NCI-H522 lung
SNB-19 CNS = system: SNB-19 CNS

Row | Structure (SMILES) | TGI (SK-MEL-28 melanoma) | GI50 (NCI-H23 lung) | TGI (NCI-H23 lung) | GI50 (SW-620 colon) | TGI (SW-620 colon) | GI50 (MDA-MB-435) | TGI (MDA-MB-435) | GI50 (UO-31 renal) | TGI (UO-31 renal) | GI50 (HCT-116 colon) | TGI (HCT-116 colon) | TGI (CCRF-CEM leukemia) | GI50 (SK-OV-3 ovarian) | TGI (SK-OV-3 ovarian) | GI50 (NCI-H522 lung) | TGI (NCI-H522 lung) | GI50 (SNB-19 CNS) | TGI (SNB-19 CNS) | GI50 (SK-MEL-28 melanoma) | GI50 (CCRF-CEM leukemia)
1 | CCCCCCCCCCCCCCCC(=O)NS(=O)(=O)OC[C@H]1O[C@@H](n2cnc3c(N)ncnc32)[C@H](O)[C@@H]1O | 1.66 µM | 0.321 µM | 1.25 µM | 0.0412 µM | 10.1 µM | 0.21 µM | 0.551 µM | 0.339 µM | 1.33 µM | 0.0719 µM | 1.21 µM | 10.6 µM | 0.278 µM | 1.15 µM | 0.0479 µM | 0.427 µM | 0.0191 µM | 0.157 µM |  | 
2 | C=C(C)COc1ccc2c(c1)CCC1C2CCC2(C)C(=O)/C(=N/O)CC12 (configuration not stated) | 33.3 µM |  | 15.5 µM |  | 9.94 µM |  | 7.61 µM |  | 15.3 µM |  | 3.08 µM | 6.61 µM |  | 22.4 µM |  | 17.4 µM |  | 25.4 µM |  | 
3 | C[n+]1cccc(NC(=O)c2ccc3ccc4ccc(C(=O)Nc5ccc[n+](C)c5)nc4c3n2)c1 | > 100 µM | 1.41 µM | > 45 µM | 2.91 µM | > 100 µM | 6.2 µM | > 100 µM | > 20.2 µM | > 100 µM | 3.18 µM | > 100 µM | > 100 µM | 1.97 µM | 12.5 µM | 0.645 µM | 23 µM | 1.61 µM | > 27 µM | 2.13 µM | 5.56 µM
4 | COc1cc(/C=C2\CCC/C(=C\c3cc(CN4CCCC4)c(O)c(OC)c3)C2=O)cc(CN2CCCC2)c1O | 22.7 µM | 4.81 µM | 19.8 µM | 3.62 µM | 12.9 µM | 2.75 µM | 7.46 µM | 10.1 µM | 21.7 µM | 1.66 µM | 3.36 µM | 8.37 µM | 4.58 µM | 16.5 µM | 2.5 µM | 7.92 µM | 8.21 µM | 20.8 µM | 10.1 µM | 2.71 µM
5 | COc1ccc2nc3cc([N+](=O)[O-])ccc3c(NCCO)c2c1 |  | 2.68 µM | 9.59 µM | 4.08 µM | 25.7 µM | 2.12 µM | 5.09 µM | 4.75 µM | 19 µM | 2.2 µM | 10.5 µM | 13.4 µM | 2.78 µM | 14.9 µM | 1.39 µM | 2.84 µM | 2.96 µM | 11.5 µM | 5.41 µM | 2.17 µM
6 | Cc1[nH]c(C(=O)Nc2cccc(OC3CCNCC3)c2)c(Cl)c1Cl | 3.07 µM | 2.14 µM | 5.54 µM | 1.88 µM | 3.64 µM | 1.81 µM | 3.3 µM | 1.52 µM | 2.94 µM | 1.65 µM | 3.24 µM | 4.26 µM | 2.07 µM | 5.09 µM | 1.86 µM | 4.02 µM | 2.11 µM | 5.18 µM | 1.64 µM | 1.92 µM
7 | CCN1C(=O)/C(=c2\sc3n(c2=O)C2C(NN=3)N(CC)C(=O)N2CC)c2ccccc21 (configuration not stated) | > 100 µM | 0.808 µM | 17.6 µM | 0.426 µM | > 100 µM | 0.199 µM | 0.449 µM | 0.846 µM | > 100 µM | 0.463 µM | > 54.3 µM | > 100 µM | 2.12 µM | > 55.7 µM | 0.384 µM | 6.99 µM | 0.75 µM | 63 µM | 0.907 µM | 0.433 µM
8 | CNC(=O)/C=C/C1=CN2C(=O)c3ccc(C)c(O)c3NC(OC)C2C1 (configuration not stated) | < 0.0131 µM |  | < 0.0177 µM |  | 24.4 µM |  | < 0.0176 µM |  | 0.265 µM |  | > 4.64 µM | > 4.64 µM |  | > 8.66 µM |  | < 0.0169 µM |  | 27.6 µM |  | 
9 | COc1ccc2[nH]c(C(=O)OCc3ccc4c(Br)cc(Br)c(O)c4n3)cc2c1 | 2.53 µM | 1.38 µM | 2.99 µM | 0.364 µM | 1.41 µM | 0.836 µM | 2.2 µM | 0.36 µM | 1.85 µM | 0.187 µM | 0.543 µM | > 100 µM | 3.16 µM | 14.4 µM | 0.395 µM | 1.82 µM | 1.5 µM | 2.89 µM | 1.26 µM | 0.331 µM
10 | C=C(C(=O)c1ccccc1)C(NC(C)(C)C)c1ccccc1 (configuration not stated) | 3.72 µM | 1.77 µM | 4.93 µM | 1.14 µM | 3.44 µM | 2.11 µM | 11 µM | 1.38 µM | 2.85 µM | 1.33 µM | 2.92 µM | 43.7 µM | 3.76 µM | 20.1 µM | 0.308 µM | 1.53 µM | 4.2 µM | 16 µM | 1.84 µM | 0.629 µM
11 | Cc1c(O)cccc1C(=O)N[C@@H](CSc1ccccc1)[C@H](O)CN1C[C@H]2CCCC[C@H]2C[C@H]1C(=O)NC(C)(C)C | 19.3 µM and 22.2 µM | 6.68 µM and 7 µM | 30.6 µM and 26.3 µM | 5.66 µM and 8.79 µM | 27 µM and 29.9 µM | 3.46 µM and 4.9 µM | 12.8 µM and 38.4 µM | 3.45 µM and 3.81 µM | 16.4 µM and 19.5 µM | 4.27 µM and 5.97 µM | 16 µM and 17.9 µM | 6.83 µM and > 27 µM | 4.29 µM and 9.5 µM | 23.9 µM and > 59.7 µM | 3.06 µM and 2.94 µM | 11.7 µM and 13.4 µM | 3.17 µM and 6.96 µM | 16.1 µM and > 43.8 µM | 5.68 µM and 7.33 µM | 2.76 µM and 8.59 µM
12 | CN1C(=O)C(N=Nc2ccc([N+](=O)[O-])cc2)SC1=S (configuration not stated) | > 100 µM | 3.89 µM and 7.46 µM | 77.1 µM and 76.9 µM | 2.53 µM and 8.17 µM | > 100 µM | 3.86 µM and 16.1 µM | 32.3 µM and 77.1 µM | 1.26 µM and 3.55 µM | 8.82 µM and 74.7 µM | 3.65 µM and 6.79 µM | 29 µM and 66.3 µM | > 100 µM | 7.51 µM and 11.2 µM | 74.4 µM and 51.5 µM | 4.52 µM and 3 µM | 52.5 µM and 47.9 µM | 6.62 µM and 11 µM | > 100 µM | 11.6 µM and 27.2 µM | 6.51 µM
13 | CCOC(=O)C1=C(C)NC2SC(=O)/C(=C\c3cccc(Cl)c3)N2C1c1ccccc1 (configuration not stated) | > 100 µM | > 100 µM | > 100 µM | > 100 µM | > 100 µM | > 100 µM | > 100 µM | > 100 µM | > 100 µM | > 100 µM | > 100 µM | > 100 µM | > 100 µM | > 100 µM | > 100 µM | > 100 µM | > 100 µM | > 100 µM | > 100 µM | > 100 µM
14 | CC1(C)CC[C@]23CC[C@]4(C)[C@H](CC[C@@H]5[C@@]6(C)CCCNC(C)(C)[C@@H]6CC[C@]54C)[C@H]2[C@H]1OC3 | 3.18 µM | 1.76 µM | 3.5 µM | 1.75 µM | 3.49 µM | 1.65 µM | 3.02 µM | 1.56 µM | 3 µM | 1.52 µM | 2.88 µM | 6.73 µM | 2.73 µM | 7.93 µM | 1.9 µM | 3.77 µM | 1.85 µM | 3.35 µM | 1.66 µM | 2.32 µM
15 | O=C1/C(=C/c2ccc(Cl)cc2)CN(Cc2cn(CCCNc3ccnc4cc(Cl)ccc34)nn2)C/C1=C\c1ccc(Cl)cc1 | 3.41 µM | 1.26 µM | 3.82 µM | 0.316 µM | 1.37 µM | 1.3 µM | 2.69 µM | 1.16 µM | 2.45 µM | 0.305 µM | 0.833 µM | > 20.5 µM | 1.84 µM | 3.52 µM | 1.61 µM | 3.17 µM | 0.643 µM | 1.86 µM | 1.82 µM | 0.426 µM
